{"source": "ChEMBL document CHEMBL1201862", "about": "“PubChem BioAssay data set” (2004)", "key": {"Protein S100-A4": {"target": "Protein S100-A4 (Homo sapiens, UniProt P26447)", "sequence (P26447 whole entry)": "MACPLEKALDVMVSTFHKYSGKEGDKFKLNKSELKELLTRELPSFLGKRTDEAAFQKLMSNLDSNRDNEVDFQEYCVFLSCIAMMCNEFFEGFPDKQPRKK", "assay": "human S100A4 peptide interaction inhibition curves – biochemical, fluorescence polarization, cherry-picked hits, dose response (AID 687001)", "assay_type": "functional"}, "[1]": {"target": "T1, Zinc finger protein mex-5 (Caenorhabditis elegans, UniProt Q9XUB2)", "T1 sequence (Q9XUB2 whole entry)": "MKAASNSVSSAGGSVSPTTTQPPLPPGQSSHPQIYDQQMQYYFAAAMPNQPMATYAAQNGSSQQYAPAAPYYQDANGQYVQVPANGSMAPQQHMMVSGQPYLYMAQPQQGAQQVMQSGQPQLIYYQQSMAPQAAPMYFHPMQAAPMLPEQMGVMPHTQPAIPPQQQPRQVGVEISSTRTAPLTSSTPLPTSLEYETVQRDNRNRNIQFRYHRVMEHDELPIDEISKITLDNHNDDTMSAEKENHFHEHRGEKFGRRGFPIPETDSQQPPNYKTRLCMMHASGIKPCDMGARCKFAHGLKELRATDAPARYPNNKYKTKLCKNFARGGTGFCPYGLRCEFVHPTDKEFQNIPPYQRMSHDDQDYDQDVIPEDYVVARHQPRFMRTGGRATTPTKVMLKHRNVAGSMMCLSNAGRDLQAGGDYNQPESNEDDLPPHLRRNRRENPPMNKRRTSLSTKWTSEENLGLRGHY", "assay": "potency of MEX-5 RNA-binding blockers – biochemical, C. elegans, fluorescence polarization, dose response (AID 1960)"}, "Fibrinogen beta chain [2]": {"target": "T2, Fibrinogen beta chain (Homo sapiens, UniProt P02675)", "T2 sequence (P02675 whole entry)": "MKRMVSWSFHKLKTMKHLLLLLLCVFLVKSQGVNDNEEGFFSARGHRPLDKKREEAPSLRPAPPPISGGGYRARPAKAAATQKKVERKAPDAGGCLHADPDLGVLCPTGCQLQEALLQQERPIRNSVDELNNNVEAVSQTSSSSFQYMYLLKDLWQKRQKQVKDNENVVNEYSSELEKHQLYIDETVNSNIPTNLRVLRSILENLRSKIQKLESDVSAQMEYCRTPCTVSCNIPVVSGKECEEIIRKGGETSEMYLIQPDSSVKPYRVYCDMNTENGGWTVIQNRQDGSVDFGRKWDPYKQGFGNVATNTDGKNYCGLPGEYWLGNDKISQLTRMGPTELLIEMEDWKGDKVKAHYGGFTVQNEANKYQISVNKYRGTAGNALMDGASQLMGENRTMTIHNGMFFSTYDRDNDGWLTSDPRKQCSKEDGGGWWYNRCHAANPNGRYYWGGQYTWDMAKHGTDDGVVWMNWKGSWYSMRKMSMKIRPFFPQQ", "assay": "Fluorescence polarization-based biochemical high throughput dose response assay to identify inhibitors that disrupt the binding of a cyclic peptide (Tn7) to the fibrin proteolytic product D-Dimer and fragment E complex [DD(E )]."}, "Keap1/Nrf2": {"target": "Keap1/Nrf2 (Homo sapiens, UniProt Q14145)", "sequence (Q16236 whole entry)": "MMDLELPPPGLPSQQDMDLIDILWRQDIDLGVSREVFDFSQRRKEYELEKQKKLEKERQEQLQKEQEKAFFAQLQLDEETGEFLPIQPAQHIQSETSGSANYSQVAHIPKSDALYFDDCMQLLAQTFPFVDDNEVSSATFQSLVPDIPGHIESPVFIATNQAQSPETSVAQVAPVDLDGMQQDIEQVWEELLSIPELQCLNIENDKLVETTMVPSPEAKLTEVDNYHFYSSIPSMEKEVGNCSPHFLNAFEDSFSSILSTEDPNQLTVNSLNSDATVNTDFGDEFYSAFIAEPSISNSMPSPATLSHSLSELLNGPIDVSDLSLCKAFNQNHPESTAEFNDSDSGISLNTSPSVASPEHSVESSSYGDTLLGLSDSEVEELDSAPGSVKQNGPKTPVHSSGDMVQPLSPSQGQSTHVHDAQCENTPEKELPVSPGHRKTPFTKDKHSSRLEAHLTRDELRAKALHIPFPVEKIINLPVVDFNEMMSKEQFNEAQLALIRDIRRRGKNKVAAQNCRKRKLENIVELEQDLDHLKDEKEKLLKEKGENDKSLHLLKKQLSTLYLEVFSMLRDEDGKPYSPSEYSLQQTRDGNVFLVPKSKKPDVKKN", "sequence (Q14145 whole entry)": "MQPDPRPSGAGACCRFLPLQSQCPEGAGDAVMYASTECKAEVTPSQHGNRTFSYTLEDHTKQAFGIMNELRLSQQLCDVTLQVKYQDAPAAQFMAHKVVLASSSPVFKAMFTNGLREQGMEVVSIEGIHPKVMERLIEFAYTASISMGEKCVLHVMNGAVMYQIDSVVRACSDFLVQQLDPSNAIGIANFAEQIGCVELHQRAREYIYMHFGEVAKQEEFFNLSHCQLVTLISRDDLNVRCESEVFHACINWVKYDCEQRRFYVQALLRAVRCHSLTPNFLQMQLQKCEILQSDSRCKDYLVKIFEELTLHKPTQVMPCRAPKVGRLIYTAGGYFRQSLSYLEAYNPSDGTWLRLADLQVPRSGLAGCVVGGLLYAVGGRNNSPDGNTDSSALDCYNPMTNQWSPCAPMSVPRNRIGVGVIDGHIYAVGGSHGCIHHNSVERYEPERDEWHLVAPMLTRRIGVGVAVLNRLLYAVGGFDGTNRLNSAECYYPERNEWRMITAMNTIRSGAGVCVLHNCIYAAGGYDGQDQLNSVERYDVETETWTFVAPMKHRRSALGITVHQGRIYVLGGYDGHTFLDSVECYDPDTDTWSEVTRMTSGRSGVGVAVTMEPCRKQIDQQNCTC", "assay": "disruptors of Keap1 binding to Nrf2 peptide – biochemical, fluorescence polarization, cherry-picked samples, dose response (AID 588683)"}, "[3]": {"target": "T3, RNA-binding protein pos-1 (Caenorhabditis elegans, UniProt G5EF15)", "T3 sequence (G5EF15 whole entry)": "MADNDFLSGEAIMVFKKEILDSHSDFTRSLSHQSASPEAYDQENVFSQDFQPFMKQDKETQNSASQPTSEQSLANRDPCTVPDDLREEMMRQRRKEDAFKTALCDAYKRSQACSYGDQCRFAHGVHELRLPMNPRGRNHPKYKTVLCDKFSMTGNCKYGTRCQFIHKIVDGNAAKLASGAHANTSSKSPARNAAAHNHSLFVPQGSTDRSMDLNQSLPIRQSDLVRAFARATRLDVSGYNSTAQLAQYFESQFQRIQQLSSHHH", "assay": "disruptors of C. elegans POS-1 RNA interaction – biochemical, fluorescence polarization, dose response (AID 1964);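 further: purified POS-1 fused to maltose binding protein made in E. coli; potency of compounds blocking POS-1 binding to fluorescent RNA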"}, "ORF 73": {"target": "ORF 73 (Human herpesvirus 8, UniProt O40947)", "sequence (O40947 whole entry)": "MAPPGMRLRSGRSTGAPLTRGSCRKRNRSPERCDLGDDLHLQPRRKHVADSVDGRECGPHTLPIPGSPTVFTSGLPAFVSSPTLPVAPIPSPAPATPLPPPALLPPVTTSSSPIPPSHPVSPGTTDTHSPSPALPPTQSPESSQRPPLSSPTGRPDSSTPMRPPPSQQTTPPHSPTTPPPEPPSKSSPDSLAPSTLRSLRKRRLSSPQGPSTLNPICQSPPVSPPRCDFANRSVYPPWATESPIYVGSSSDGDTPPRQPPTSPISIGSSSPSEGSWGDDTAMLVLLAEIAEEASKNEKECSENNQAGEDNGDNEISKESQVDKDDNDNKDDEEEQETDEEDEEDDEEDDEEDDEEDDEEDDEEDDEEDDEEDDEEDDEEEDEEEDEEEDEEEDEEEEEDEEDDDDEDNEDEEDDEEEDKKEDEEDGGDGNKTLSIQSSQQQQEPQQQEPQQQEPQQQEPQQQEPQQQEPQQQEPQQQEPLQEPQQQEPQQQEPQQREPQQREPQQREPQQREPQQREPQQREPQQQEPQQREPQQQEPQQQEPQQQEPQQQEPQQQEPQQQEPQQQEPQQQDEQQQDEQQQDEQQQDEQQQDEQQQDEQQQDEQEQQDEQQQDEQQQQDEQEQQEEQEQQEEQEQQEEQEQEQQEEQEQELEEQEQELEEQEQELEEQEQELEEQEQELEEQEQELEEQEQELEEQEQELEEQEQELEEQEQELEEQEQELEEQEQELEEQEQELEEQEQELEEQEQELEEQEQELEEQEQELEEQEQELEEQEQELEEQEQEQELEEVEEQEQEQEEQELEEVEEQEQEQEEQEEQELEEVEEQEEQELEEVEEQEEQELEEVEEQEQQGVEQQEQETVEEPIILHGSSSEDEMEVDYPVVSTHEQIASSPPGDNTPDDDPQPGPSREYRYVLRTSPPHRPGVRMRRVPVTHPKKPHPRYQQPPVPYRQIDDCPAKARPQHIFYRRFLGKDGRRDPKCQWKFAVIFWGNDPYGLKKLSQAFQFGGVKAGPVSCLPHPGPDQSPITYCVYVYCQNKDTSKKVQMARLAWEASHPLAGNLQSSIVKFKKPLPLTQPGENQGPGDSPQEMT", "assay": "KSHV LANA DNA-binding disruption – biochemical, fluorescence polarization, cherry-picked samples, dose response (AID 504725);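 further: fluorescence polarization of a labeled DNA duplex reporting LANA DNA binding; potency is for inhibitors that block LANA binding to the DNA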", "set-up": "species or system Human gammaherpesvirus 8"}, "[4]": {"target": "UDP-galactopyranose mutase (Mycobacterium tuberculosis, UniProt P9WIQ1)", "sequence (P9WIQ1 whole entry)": "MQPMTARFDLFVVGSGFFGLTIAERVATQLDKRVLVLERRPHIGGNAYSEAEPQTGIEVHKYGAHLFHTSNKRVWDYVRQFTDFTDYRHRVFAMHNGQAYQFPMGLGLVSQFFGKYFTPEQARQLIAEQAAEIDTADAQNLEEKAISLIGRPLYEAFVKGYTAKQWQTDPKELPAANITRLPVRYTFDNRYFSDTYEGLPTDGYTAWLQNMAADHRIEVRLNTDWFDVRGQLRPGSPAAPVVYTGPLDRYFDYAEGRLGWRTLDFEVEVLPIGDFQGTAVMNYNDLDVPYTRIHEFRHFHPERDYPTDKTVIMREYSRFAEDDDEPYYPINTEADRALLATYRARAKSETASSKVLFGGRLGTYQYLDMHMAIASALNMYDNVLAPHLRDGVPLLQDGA", "assay": "Inhibitors of Mycobacterium tuberculosis UDP-galactopyranose mutase (UGM) enzyme Measured in Biochemical System Using Plate Reader - 2105-02_Inhibitor_Dose_CherryPick_Activity. [Related pubchem assays (depositor defined):AID504439]"}, "[5]": {"target": "E3 ubiquitin-protein ligase XIAP (Homo sapiens, UniProt P98170)", "sequence (P98170 whole entry)": "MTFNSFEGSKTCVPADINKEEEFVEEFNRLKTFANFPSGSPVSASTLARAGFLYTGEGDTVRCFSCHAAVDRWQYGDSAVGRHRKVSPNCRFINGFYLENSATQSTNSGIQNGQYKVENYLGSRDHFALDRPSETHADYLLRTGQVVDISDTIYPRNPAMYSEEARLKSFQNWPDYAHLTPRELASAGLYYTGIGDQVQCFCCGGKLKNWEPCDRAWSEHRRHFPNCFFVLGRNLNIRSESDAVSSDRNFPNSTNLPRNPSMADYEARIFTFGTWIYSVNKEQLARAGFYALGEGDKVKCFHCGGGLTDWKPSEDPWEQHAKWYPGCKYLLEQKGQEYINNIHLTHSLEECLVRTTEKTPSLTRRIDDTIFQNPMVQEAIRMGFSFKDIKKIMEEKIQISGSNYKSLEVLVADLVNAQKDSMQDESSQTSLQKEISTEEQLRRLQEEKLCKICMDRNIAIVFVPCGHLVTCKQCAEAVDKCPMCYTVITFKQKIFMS", "assay": "Counter Screen using XIAP-Bir3 for Chemical Antagonists of Bir1/2 domains of IAP-family anti-apoptotic proteins. [Related pubchem assays (depositor defined):AID1018, AID1449, AID1514, AID1638, AID1749, AID1750, AID488957, AID488963]"}, "Fibrinogen beta chain [6]": {"target": "T2, Fibrinogen beta chain", "assay": "Fluorescence polarization-based biochemical high throughput dose response assay to identify inhibitors that disrupt the binding of a cyclic peptide (Tn6) to the fibrin proteolytic product D-Dimer and fragment E complex [DD(E )]."}, "[7]": {"target": "Kappa-type opioid receptor (Homo sapiens, UniProt P41145)", "sequence (P41145 whole entry)": "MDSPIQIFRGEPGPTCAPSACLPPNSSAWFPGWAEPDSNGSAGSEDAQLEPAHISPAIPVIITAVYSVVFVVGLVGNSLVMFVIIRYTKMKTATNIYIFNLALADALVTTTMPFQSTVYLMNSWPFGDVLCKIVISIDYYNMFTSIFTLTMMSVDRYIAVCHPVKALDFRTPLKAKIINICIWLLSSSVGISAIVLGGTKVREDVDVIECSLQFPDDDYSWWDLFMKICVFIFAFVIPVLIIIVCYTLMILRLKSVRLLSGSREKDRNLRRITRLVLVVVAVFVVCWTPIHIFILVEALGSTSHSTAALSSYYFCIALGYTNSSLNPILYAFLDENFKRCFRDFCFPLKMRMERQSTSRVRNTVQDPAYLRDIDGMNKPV", "assay": "SAR analysis of small molecule agonists of the kappa opioid receptor via a luminescent beta-arrestin assay - Set 3. [Related pubchem assays (depositor defined):AID1777, AID1785, AID1786, AID1966, AID2133, AID2136, AID2284, AID2500]", "assay_type": "functional"}, "[8]": {"target": "Dual specificity protein phosphatase 6 (Rattus norvegicus, UniProt Q64346)", "sequence (Q64346 whole entry)": "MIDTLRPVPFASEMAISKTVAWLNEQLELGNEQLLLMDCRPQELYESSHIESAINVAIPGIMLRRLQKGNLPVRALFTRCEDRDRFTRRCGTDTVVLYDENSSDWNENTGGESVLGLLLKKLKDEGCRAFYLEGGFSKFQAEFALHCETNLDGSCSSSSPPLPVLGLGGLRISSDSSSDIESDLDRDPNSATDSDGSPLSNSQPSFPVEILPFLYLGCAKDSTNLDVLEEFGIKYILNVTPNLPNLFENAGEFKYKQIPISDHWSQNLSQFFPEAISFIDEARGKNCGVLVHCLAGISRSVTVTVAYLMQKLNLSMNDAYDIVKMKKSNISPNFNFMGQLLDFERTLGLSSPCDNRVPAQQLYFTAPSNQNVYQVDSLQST", "assay_type": "functional"}, "[9]": {"target": "Tyrosine-protein phosphatase non-receptor type 7 (Homo sapiens, UniProt P35236)", "sequence (P35236 whole entry)": "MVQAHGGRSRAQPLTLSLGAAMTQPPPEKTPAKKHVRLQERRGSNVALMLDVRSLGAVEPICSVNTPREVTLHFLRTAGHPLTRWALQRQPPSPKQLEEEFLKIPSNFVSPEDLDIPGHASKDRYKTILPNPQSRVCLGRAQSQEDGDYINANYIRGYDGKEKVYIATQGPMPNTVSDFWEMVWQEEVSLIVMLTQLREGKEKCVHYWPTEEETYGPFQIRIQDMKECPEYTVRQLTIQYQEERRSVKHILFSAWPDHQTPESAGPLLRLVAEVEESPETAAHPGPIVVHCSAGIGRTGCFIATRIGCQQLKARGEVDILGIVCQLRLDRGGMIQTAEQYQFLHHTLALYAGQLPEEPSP", "assay": "redox-active compounds inhibiting HePTP phosphatase – biochemical, fluorescence, mechanism study (AID 2068)", "assay_type": "functional"}, "Cytochrome P450 1A2": {"target": "T4, Cytochrome P450 1A2 (Homo sapiens, UniProt P05177)", "T4 sequence (P05177 whole entry)": "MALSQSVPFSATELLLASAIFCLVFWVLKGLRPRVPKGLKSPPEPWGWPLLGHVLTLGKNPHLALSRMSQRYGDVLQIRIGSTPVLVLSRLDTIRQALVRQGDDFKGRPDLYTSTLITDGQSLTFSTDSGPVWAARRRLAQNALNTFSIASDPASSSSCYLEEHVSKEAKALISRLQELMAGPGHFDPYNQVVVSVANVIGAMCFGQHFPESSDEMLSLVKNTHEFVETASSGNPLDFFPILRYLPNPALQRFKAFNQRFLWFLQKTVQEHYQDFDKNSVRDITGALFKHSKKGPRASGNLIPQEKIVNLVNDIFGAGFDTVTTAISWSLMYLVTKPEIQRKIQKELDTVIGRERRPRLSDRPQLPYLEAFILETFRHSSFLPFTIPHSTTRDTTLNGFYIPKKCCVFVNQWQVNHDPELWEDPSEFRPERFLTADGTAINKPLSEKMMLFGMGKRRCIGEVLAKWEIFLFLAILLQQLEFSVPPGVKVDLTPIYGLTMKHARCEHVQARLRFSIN"}, "Cytochrome P450 2D6": {"target": "Cytochrome P450 2D6 (Homo sapiens, UniProt P10635)", "sequence (P10635 whole entry)": "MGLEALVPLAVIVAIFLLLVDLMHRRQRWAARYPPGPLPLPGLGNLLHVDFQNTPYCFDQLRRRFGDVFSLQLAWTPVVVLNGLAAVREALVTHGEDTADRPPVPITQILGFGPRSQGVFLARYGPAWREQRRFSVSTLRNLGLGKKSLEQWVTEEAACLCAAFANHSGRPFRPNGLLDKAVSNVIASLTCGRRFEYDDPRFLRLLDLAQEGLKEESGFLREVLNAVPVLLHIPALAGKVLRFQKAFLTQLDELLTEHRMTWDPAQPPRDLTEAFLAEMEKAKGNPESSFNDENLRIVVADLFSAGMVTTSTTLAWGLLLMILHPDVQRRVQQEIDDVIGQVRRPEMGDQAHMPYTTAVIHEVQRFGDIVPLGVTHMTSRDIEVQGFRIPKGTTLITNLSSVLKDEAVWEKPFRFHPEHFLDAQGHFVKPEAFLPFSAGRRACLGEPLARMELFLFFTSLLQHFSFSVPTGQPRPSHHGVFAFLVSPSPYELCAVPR"}, "[10]": {"target": "T5, Heat shock factor protein 1 (Mus musculus, UniProt P38532)", "T5 sequence (P38532 whole entry)": "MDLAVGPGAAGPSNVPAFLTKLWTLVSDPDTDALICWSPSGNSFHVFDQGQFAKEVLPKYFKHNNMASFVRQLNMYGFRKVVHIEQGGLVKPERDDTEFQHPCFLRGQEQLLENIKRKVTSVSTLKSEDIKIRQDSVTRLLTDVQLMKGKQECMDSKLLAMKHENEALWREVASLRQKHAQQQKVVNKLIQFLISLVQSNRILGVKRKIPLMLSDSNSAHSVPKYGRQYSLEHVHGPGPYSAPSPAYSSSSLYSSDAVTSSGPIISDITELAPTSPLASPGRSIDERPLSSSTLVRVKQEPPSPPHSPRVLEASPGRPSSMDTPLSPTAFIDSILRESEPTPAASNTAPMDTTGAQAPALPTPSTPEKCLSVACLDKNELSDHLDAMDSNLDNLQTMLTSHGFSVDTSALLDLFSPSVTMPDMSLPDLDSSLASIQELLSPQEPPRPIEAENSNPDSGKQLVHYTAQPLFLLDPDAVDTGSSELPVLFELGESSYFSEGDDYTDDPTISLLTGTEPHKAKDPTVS", "assay": "decrease of HSF1-responsive luciferase luminescence – cell-based, NIH3T3, dose retest, confirmation (AID 2382);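 further: NIH3T3 fibroblasts with HSF1-driven luciferase reporter stressed by proteasome inhibitor MG132; luminescence from HSF1-driven luciferase expression after 8 hours of MG132 stress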", "assay_type": "functional"}}, "note": "Where “and” joins values, the source holds several entries; their conditions need not be identical. Equal entries are not always repeated. Calls of active or inactive are those of the source.", "data": [{"smiles": "CN1C(=O)NC(c2ccccc2[N+](=O)[O-])C2=C1CCCC2=O", "note": "(stereo not given)", "values": [{"measurement": "AC50", "setting": "Protein S100-A4", "value": "1.41 µM (active)"}, {"measurement": "EC50", "setting": "[1]", "value": "7.58 µM (inconclusive)"}, {"measurement": "IC50", "setting": "Fibrinogen beta chain [2]", "value": "> 83.3 µM (inactive)"}, {"measurement": "AC50", "setting": "Keap1/Nrf2", "value": "44.5 µM (active)"}, {"measurement": "EC50", "setting": "[3]", "value": "8.8 µM (active)"}, {"measurement": "AC50", "setting": "ORF 73", "value": "24.9 µM (active)"}, {"measurement": "AC50", "setting": "[4]", "value": "54.3 µM (active)"}, {"measurement": "IC50", "setting": "[5]", "value": "> 20 µM (inactive)"}, {"measurement": "IC50", "setting": "Fibrinogen beta chain [6]", "value": "11.3 µM (inactive)"}]}, {"smiles": "CCCCN(Cc1cc2cc(Cl)ccc2[nH]c1=O)C(=O)c1ccccn1", "values": [{"measurement": "EC50", "setting": "[7]", "value": "1.87 µM (active)"}]}, {"smiles": "COc1cc(C(=S)NCc2ccc(F)c(C)c2)ccc1O", "values": [{"measurement": "IC50", "setting": "[8]", "value": "> 100 µM (inactive)"}, {"measurement": "IC50", "setting": "[9]", "value": "4.33 µM (active)"}]}, {"smiles": "Cc1ccc(N(CC2=NCCN2)c2cccc(O)c2)cc1", "note": "[PHENTOLAMINE]", "values": [{"measurement": "AC50", "setting": "Cytochrome P450 1A2", "value": "inactive"}, {"measurement": "AC50", "setting": "Cytochrome P450 2D6", "value": "794 nM (active) and 1.12 µM (active)"}, {"measurement": "EC50", "setting": "[10]", "value": "> 195 µM (not active)"}]}]}
